*1 amine or outer side, *2 acyl side, *3 side chain or, on linkers, in order; H or OH if unused. Where a SMILES comes first, the peptide text is derived from it. Where no end group is shown, it is not given here. Side-chain parts run from the residue outwards. [ ]: non-standard residue; d: D form. Thyronine(3,5,3'-I3) = N[C@@H](Cc1cc(I)c(Oc2ccc(O)c(I)c2)c(I)c1)C(=O)O; γGlu = O=C(O)[C@H](CCC(=O)[*:2])N[*:1]
Experiments:
[1] = assay type: in vitro ADME, human
Procedure: Each compound was incubated with phosphate buffered saline (PBS, pH=7.4) containing 60% mouse plasma at 37° C. for the duration of the study. At the time points of 6 h, 24 h and 72 h, aliquots of the incubated solutions were withdrawn and diluted with acetonitrile to precipitate the plasma proteins, which were subsequently removed by microcentrifugation at 13,000 rpm for 5 mins. The supernatant was collected and diluted for the analytical reversed-phase HPLC using a linear gradient of buffer B over buffer A (A: 10% aqueous acetonitrile, 0.1% TFA; B: 90% aqueous acetonitrile, 0.1% TFA) on a Zorbax C8 column (4.6×50 mm). RNA-Seq Total RNAs were extracted from frozen liver samples of 4 independent mice per group (vehicle, glucagon only, T3 only, co-administration of glucagon and T3 and glucagon/T3) using TriPure RNA reagent (Sigma). Poly-A isolation, library generation and amplification were performed according to the protocol of the mRNASeq Library Prep Kit (Lexogen). […] Mapping of color-coded reads on the mouse genome (mm10 assembly) was performed using the Lifescope software (Life Technologies). Reads for annotated (Ensembl) genes were counted using HtSeq. […] The synergy score (SS) was calculated as the relative fold change (FC) of (glucagon/T3) compared to the maximum FC of T3 and glucagon alone: SS=FC (glucagon/T3)/max (T3, glucagon). […]

DIO mice = test: Cardiac function and histology in DIO mice (echocardiography); assay type: in vivo, mouse; settings: mouse, in vivo
Procedure: After chronic treatment, HFHCD-fed or HFHSD-fed C57B16/j male mice (age) were sacrificed with CO2, body weight as well as heart weights and tibia length was taken during necropsy. Livers and whole hearts were embedded in paraffin using a vacuum infiltration processor TissueTEK VIP (Sakura). 3 μm thick slides were cut using a HMS35 rotatory microtome (Zeiss) and H & E staining was performed. For H & E staining, rehydration was done in a decreasing ethanol series, rinsing with tapwater, 2 min Mayers acid Hemalum, bluing in tapwater followed by lmin EosinY (both BioOptica). Dehydration was performed in increasing ethanol series, mounting with Pertex® (Medite GmbH) and coverslips (CarlRoth Chemicals). The slides were evaluated independently using a brightfield microscope (Axioplan, Zeiss). Photos were taken using the Hamamatsu-Nanozoomer HT2.0 in 1.25×, 5×. 20× and 40× magnification. The hepatic steatosis score is defined as the unweighted sum of the three individual scores for steatosis, lobular inflammation and ballooning degeneration. Steatosis is graded by the presence of fat vacuoles in liver cells according to the percentage of affected tissue (0: <5%; 1: 5-33%; 2: 33-66%; 3: >66%). Lobular inflammation is scored by overall assessment of inflammatory foci per 200× field (0: no foci; 1: <2 foci; 2: 2-4 foci; 3: >4 foci). The individual score for ballooning degeneration ranges from 0 (none), 1 (few cells) to 2 (many cells). Total scores range from 0 to 8 with scores <2 considered non-steatosis, 3 considered as borderline steatosis, 4-5 considered onset of steatosis, and >6 considered steatosis. Different to liver and heart, inguinal fat pad samples were embedded in paraffin using Leica embedding machine (EG1150 H) and cut in 5 μm sections using Leica Microtome (RM2255) to perform H&E staining. Samples were stained with hematoxyline for 4 minutes and eosinY for 2 minutes and fixed with Roti®-Histokitt (Carl Roth) before analysing them independently using Microscope Scope A.1 (Zeiss).
For transthoracic echocardiography, a Vevo2100 Imaging System (VisualSonics Inc., Toronto Canada) with a 30 MHz probe was used. All echocardiograms were performed on conscious animals to prevent anesthesia-related impairment of cardiac function as reported previously. Briefly, echocardiograms were obtained in parasternal long and short axis views. For accurate linear measurements of LV internal dimensions (LVID) and […] (LVPW) or septal (IVS) wall thicknesses, M-mode images of the heart in parasternal short-axis view at the level of the papillary muscle were acquired. Qualitative and quantitative measurements were made offline using analytical software (VisualSonics Inc.). Fractional shortening (FS) was calculated as FS %=[(LVIDd−LVIDs)/LVIDd]×100. Ejection fraction (EF) was calculated as EF %=100*((LVvolD−LVvolS)/LVvolD) with LVvol=((7.0/(2.4+LVID)*LVID^3). The corrected LV mass (LV MassCor) was calculated as LV MassCor=0.8(1.053*((LVIDd+LVPWd+IVSd)^3−LVIDd^3)). Heart rate and respiration rate were determined from M-mode tracings, using 3 consecutive intervals.
Gene expression profiling in the liver, iWAT, eWAT, BAT, and heart were performed following treatment of mice according to the treatment paradigms explained in the figure legends for each specific analsysis. For tissue collection, mice were fasted for 4 h and treated with compounds 2 h prior to tissue collection. Gene expression was profiled with quantitative real-time RT-PCR using either TaqMan single probes or with specifically-designed TaqMan low-density array cards. The relative expression of the selected genes was normalized to the reference gene hypoxanthine-guanine phosphoribosyltransferase (Hprt).

[2] = system: HFHSD-fed male C57Bl6j mice; test: Metabolic efficacy of different glucagon/T3 conjugate versions in HFHSD-fed mice; assay type: in vivo, mouse; settings: 100 nmol kg-1 daily, 14 days
Excerpt: For studies on lipid handling in wildtype mice (Western mice), male C57Bl/6j mice (Jackson Laboratories) were fed a atherogenic Western diet (Research Diets D12079B), which is a high-cholesterol diet (0.21% gm %) with 41% kcal from fat, 43% kcal from carbohydrates, and 17% kcal from protein. For studies on energy metabolism in obese mice (DIO mice), male C57Bl/6j mice (Jackson Laboratories) were fed a diabetogenic diet (Research Diets D12331), which is a high-sucrose diet with 58% kcal from fat 25.5% kcal from carbohydrates, and 16.4% kcal from protein. Both dietary challenges began at 8 weeks of age. HFHSD and HFHCD mice were single- or group-housed on a 12:12-h light-dark cycle at 22° C. with free access to food and water. Mice were maintained under these conditions for a minimum of 16 weeks before initiation of pharmacological studies and were between the ages of 6 months to 12 months old. All injections and tests were performed during the light cycle. Compounds were administered in a vehicle of 1% Tween-80 and 1% DMSO and were given by daily subcutaneous injections at the indicated doses at a volume of 5 μl per g body weight. Mice were randomized and evenly distributed to test groups according to body weight and body composition. If ex vivo molecular biology/histology/biochemistry analyses were performed, the entire group of mice for each treatment was analyzed and scored in a blinded fashion.
Compounds were administered by repeated subcutaneous injections in the middle of the light phase at the indicated doses with the indicated durations. Co-administration of compounds was administered by single formulated injections. Body weights and food intake were measured every day or every other day after the first injection. All studies with wild-type mice were performed with a group size of n=8 or greater using mice on a C57B16j background.
Blood was collected at the indicated times from tail veins or after euthanasia using EDTA-coated microvette tubes (Sarstedt), immediately chilled on ice, centrifuged at 5,000 g and 4° C., and plasma was stored at −80° C. For […] (FPLC) of cholesterol distribution in different lipoprotein fractions, fresh plasma from each treatment group was pooled (n=6-8) and ran over two Superose 6 HR columns in tandem. Cholesterol levels in the collected fractions were determined by colorimetric assay. Plasma insulin and T3 were quantified by an ELISA assay (Ultrasenstive Mouse Insulin ELISA and Rodent T3 ELISA; Alpco). Plasma FGF21 was quantified by an ELISA assay (Mouse FGF21 ELISA; Millipore). Plasma cholesterol, extracted hepatic cholesterol, triglycerides, ALT, and AST were measured using enzymatic assay kits (Thermo Fisher). Plasma creatinine and blood urea nitrogen were measured using enzymatic assay kits (Abcam). Plasma free fatty acids were measured using enzymatic assay kits (Wako). All assays were performed according to the manufacturers' instructions.

Row | Compound | degradation in plasma [1] | heart histology: thyrotoxic cardiomyopathy (DIO mice) | whole heart expression of T3-sensitive genes (Dio2, Ucp2) (DIO mice) | whole heart expression of hypertrophic gene markers (Nppa, Nppb) (DIO mice) | body weight lowering [2] | cholesterol lowering effect [2] | lipid lowering [2]
1 | CSCC[C@H](NC(=O)[C@H](CC(C)C)NC(=O)[C@H](Cc1c[nH]c2ccccc12)NC(=O)[C@H](CCC(N)=O)NC(=O)[C@@H](NC(=O)[C@H](Cc1ccccc1)NC(=O)[C@H](CC(=O)O)NC(=O)[C@H](CCC(N)=O)NC(=O)[C@H](C)NC(=O)[C@H](CCCNC(=N)N)NC(=O)[C@H](CCCNC(=N)N)NC(=O)[C@H](CO)NC(=O)[C@H](CC(=O)O)NC(=O)[C@H](CC(C)C)NC(=O)[C@H](Cc1ccc(O)cc1)NC(=O)[C@H](CCCCN)NC(=O)[C@H](CO)NC(=O)[C@H](Cc1ccc(O)cc1)NC(=O)[C@H](CC(=O)O)NC(=O)[C@H](CO)NC(=O)[C@@H](NC(=O)[C@H](Cc1ccccc1)NC(=O)[C@@H](NC(=O)CNC(=O)[C@H](CCC(N)=O)NC(=O)[C@@H](CO)NC(=O)[C@@H](N)Cc1c[nH]cn1)[C@@H](C)O)[C@@H](C)O)C(C)C)C(=O)N[C@@H](CC(N)=O)C(=O)NCC(=O)NCC(=O)N1CCC[C@H]1C(=O)N[C@@H](CO)C(=O)N[C@@H](CO)C(=O)NCC(=O)N[C@@H](C)C(=O)N1CCC[C@H]1C(=O)N1CCC[C@H]1C(=O)N1CCC[C@H]1C(=O)N[C@@H](CO)C(=O)N[C@@H](CCCCNC(=O)CC[C@H](NC(=O)[C@@H](N)Cc1cc(I)c(Oc2ccc(O)c(I)c2)c(I)c1)C(=O)O)C(N)=O [glucagon/T3] (H-H[dS]QGTFTSDYSKYLDSRRAQDFVQWLMNGGPSSGAPPPSK([γGlu-Thyronine(3,5,3'-I3)])-NH2; N-terminus assumed) | remains intact with nearly no detectable degradation | none of these manifestations of thyrotoxicity or thyroid hormone induced cardiomyopathy were detectable | did not appear to be regulated | did not appear to be regulated | – | – | –
2 | glucagon/iT3: inverted attachment: amine of T3 covalently linked to the glucagon analog through a succinate spacer at Lys40 (H[dS]QGTFTSDYSKYLDSRRAQDFVQWLMNGGPSSGAPPPSK; not fully specified (residue 40)) | – | – | – | – | failed to lower body weight | not evident | did not lower lipids
3 | glucagon/rT3: reverse T3 (rT3) coupled to the glucagon analog with the same linker chemistry as glucagon/T3 (H[dS]QGTFTSDYSKYLDSRRAQDFVQWLMNGGPSSGAPPPSK; not fully specified (residue 40); also: reverse T3 (rT3) coupled with same linker chemistry as glucagon/T3) | – | – | – | – | failed to lower body weight | not evident | did not lower lipids
